From US20250026759A1 (Merck Sharp & Dohme LLC, priority 2023, published 2025) come the findings set out here.

A word on the EC50: it is the concentration at which the effect is half-maximal.

The assay concerns PBMCs infected with VSV-G pseudotyped HIV virus (VSV-G/pNLG1-P2A-ΔEnv). As to the kind of experiment: cells. The assay is classed as cell-based, human. Conditions: Homo sapiens, PBMC, read-out: TACK EC50.
With `COc1nn(Cc2cc3c(cc2F)[C@@](C#CC2CC2)(C(C)(F)F)NC(=O)N3)cc1F` [Example 115, (S)-4-(cyclopropylethynyl)-4-(1,1-difluoroethyl)-6-fluoro-7-((4-fluoro-3-methoxy-1H-pyrazol-1-yl)methyl)-3,4-dihydroquinazolin-2(1H)-one], the EC50 is 19.8 nM.
Then `O=C1Nc2cc(Cn3c(=O)[nH]c4ccccc43)c(F)cc2[C@@](C#CC2CC2)(C(F)(F)F)N1` [Example 24, (S)-4-(cyclopropylethynyl)-6-fluoro-7-((2-oxo-2,3-dihydro-1H-benzo[d]imidazol-1-yl)methyl)-4-(trifluoromethyl)-3,4-dihydroquinazolin-2(1H)-one], with 32.5 nM.
Then `Cc1n[nH]c(=O)n1Cc1cc2c(cc1F)[C@@](C#CC1CC1)(C(C)(F)F)NC(=O)N2` [Example 38, (S)-4-(cyclopropylethynyl)-4-(1,1-difluoroethyl)-6-fluoro-7-((3-methyl-5-oxo-1,5-dihydro-4H-1,2,4-triazol-4-yl)methyl)-3,4-dihydroquinazolin-2(1H)-one], with 23 nM.
The result for `O=C1Nc2cc(Cn3c(Cl)n[nH]c3=O)c(F)cc2[C@@](C#CC2CC2)(C(F)(F)F)N1` [Example 36, (S)-7-((3-chloro-5-oxo-1,5-dihydro-4H-1,2,4-triazol-4-yl)methyl)-4-(cyclopropylethynyl)-6-fluoro-4-(trifluoromethyl)-3,4-dihydroquinazolin-2(1H)-one] reads 13.3 nM; that for `O=C1Nc2cc(CN3Cc4ccccc4C3=O)c(F)cc2[C@@](C#CC2CC2)(C(F)(F)F)N1` [Example 96, (S)-4-(cyclopropylethynyl)-6-fluoro-7-((1-oxoisoindolin-2-yl)methyl)-4-(trifluoromethyl)-3,4-dihydroquinazolin-2(1H)-one], 45.1 nM; that for `CC(O)c1ccn(Cc2cc3c(cc2F)[C@@](C#CC2CC2)(C(C)(F)F)NC(=O)N3)n1` (single isomer, unassigned) [Example 72, (S)-4-(cyclopropylethynyl)-4-(1,1-difluoroethyl)-6-fluoro-7-((3-((S or R)-1-hydroxyethyl)-1H-pyrazol-1-yl)methyl)-3,4-dihydroquinazolin-2(1H)-one], 46.2 nM.
For `Cc1cc[nH]c1C(=O)NCc1cc2c(cc1F)[C@@](C#CC1CC1)(C(F)(F)F)NC(=O)N2` [Example 86, (S)-N-((4-(cyclopropylethynyl)-6-fluoro-2-oxo-4-(trifluoromethyl)-1,2,3,4-tetrahydroquinazolin-7-yl)methyl)-3-methyl-1H-pyrrole-2-carboxamide], the EC50 came to 15.7 nM.
As to `Cc1cc(N)nn1Cc1cc2c(cc1F)[C@@](C#CC1CC1)(C(C)(F)F)NC(=O)N2` [Example 44, (S)-7-((3-amino-5-methyl-1H-pyrazol-1-yl)methyl)-4-(cyclopropylethynyl)-4-(1,1-difluoroethyl)-6-fluoro-3,4-dihydroquinazolin-2(1H)-one], the EC50 is 19.5 nM.
`CC(F)(F)[C@@]1(C#CC2CC2)NC(=O)Nc2cc(Cn3nc[nH]c3=O)c(F)cc21` [Example 109, (S)-4-(cyclopropylethynyl)-4-(1,1-difluoroethyl)-6-fluoro-7-((5-oxo-4,5-dihydro-1H-1,2,4-triazol-1-yl)methyl)-3,4-dihydroquinazolin-2(1H)-one]: the half-maximal effective concentration (EC50) turned out to be 20.9 nM.
Then `CN(Cc1cc2c(cc1F)[C@@](C#CC1CC1)(C(C)(F)F)NC(=O)N2)c1cc[nH]n1` [Example 111, (S)-4-(cyclopropylethynyl)-4-(1,1-difluoroethyl)-6-fluoro-7-((methyl(1H-pyrazol-3-yl)amino)methyl)-3,4-dihydroquinazolin-2(1H)-one], with 103 nM.
Then `CC(F)(F)[C@@]1(C#CC2CC2)NC(=O)Nc2cc(Cn3cnc(CO)c3)c(F)cc21` (single isomer, unassigned) [Example 51], with 107 nM; and `CC(F)(F)[C@@]1(C#CC2CC2)NC(=O)Nc2cc(Cn3cncn3)c(F)cc21` [Example 20, (S)-7-((1H-1,2,4-triazol-1-yl)methyl)-4-(cyclopropylethynyl)-4-(1,1-difluoroethyl)-6-fluoro-3,4-dihydroquinazolin-2(1H)-one], with 43.7 nM.
On to `Cc1nn(Cc2cc3c(cc2F)[C@@](C#CC2CC2)(C(C)(F)F)NC(=O)N3)c(=O)n1C` [Example 128, (S)-4-(cyclopropylethynyl)-4-(1,1-difluoroethyl)-7-((3,4-dimethyl-5-oxo-4,5-dihydro-1H-1,2,4-triazol-1-yl)methyl)-6-fluoro-3,4-dihydroquinazolin-2(1H)-one], for which the EC50 worked out at 115 nM.
The result for `NC(=O)c1ncnn1Cc1cc2c(cc1F)[C@@](C#CC1CC1)(C(F)(F)F)NC(=O)N2` (single isomer, unassigned) [Example 116] reads 31.8 nM; that for `O=C1Nc2cc(CNC(=O)c3nnc[nH]3)c(F)cc2[C@@](C#CC2CC2)(C(F)(F)F)N1` [Example 85, (S)-N-((4-(cyclopropylethynyl)-6-fluoro-2-oxo-4-(trifluoromethyl)-1,2,3,4-tetrahydroquinazolin-7-yl)methyl)-4H-1,2,4-triazole-3-carboxamide], 280 nM.
Then `CC(F)(F)[C@@]1(C#CC2CC2)NC(=O)Nc2cc(Cn3ccc(Br)n3)c(F)cc21` [Example 19, (S)-7-((3-bromo-1H-pyrazol-1-yl)methyl)-4-(cyclopropylethynyl)-4-(1,1-difluoroethyl)-6-fluoro-3,4-dihydroquinazolin-2(1H)-one], with 26.2 nM; and `O=C1Nc2cc(Cn3c(C4CC4)n[nH]c3=O)c(F)cc2[C@@](C#CC2CC2)(C(F)(F)F)N1` [Example 37, (S)-7-((3-cyclopropyl-5-oxo-1,5-dihydro-4H-1,2,4-triazol-4-yl)methyl)-4-(cyclopropylethynyl)-6-fluoro-4-(trifluoromethyl)-3,4-dihydroquinazolin-2(1H)-one], with 42.9 nM.
Then `O=C1Nc2cc(Cn3c(=O)[nH]c4ccncc43)c(F)cc2[C@@](C#CC2CC2)(C(F)(F)F)N1` [Example 41, (S)-4-(cyclopropylethynyl)-6-fluoro-7-((2-oxo-1,2-dihydro-3H-imidazo[4,5-c]pyridin-3-yl)methyl)-4-(trifluoromethyl)-3,4-dihydroquinazolin-2(1H)-one], with 26.1 nM; and `NC(=O)c1nccn1Cc1cc2c(cc1F)[C@@](C#CC1CC1)(C(F)(F)F)NC(=O)N2` [Example 100, (S)-1-((4-(cyclopropylethynyl)-6-fluoro-2-oxo-4-(trifluoromethyl)-1,2,3,4-tetrahydroquinazolin-7-yl)methyl)-1H-imidazole-2-carboxamide], with 13.6 nM; and `Cc1cnn(Cc2cc3c(cc2F)[C@@](C#CC2CC2)(C(C)(F)F)NC(=O)N3)c1` [Example 11, (S)-4-(cyclopropylethynyl)-4-(1,1-difluoroethyl)-6-fluoro-7-((4-methyl-1H-pyrazol-1-yl)methyl)-3,4-dihydroquinazolin-2(1H)-one], with 46.6 nM.
`O=C1Nc2cc(CNC(=O)c3ncc[nH]3)c(F)cc2[C@@](C#CC2CC2)(C(F)(F)F)N1` [Example 80, (S)-N-((4-(cyclopropylethynyl)-6-fluoro-2-oxo-4-(trifluoromethyl)-1,2,3,4-tetrahydroquinazolin-7-yl)methyl)-1H-imidazole-2-carboxamide]: the EC50 was 9.8 nM.
As to `Cc1ccn(Cc2ccc3c(c2)NC(=O)N[C@]3(C#CC2CC2)C(F)(F)F)n1` [Example 127, (S)-4-(cyclopropylethynyl)-7-((3-methyl-1H-pyrazol-1-yl)methyl)-4-(trifluoromethyl)-3,4-dihydroquinazolin-2(1H)-one], the EC50 stood at 103 nM.
On to `CC(F)(F)[C@@]1(C#CC2CC2)NC(=O)Nc2cc(Cn3nnc4ccccc43)c(F)cc21` [Example 92, (S)-7-((1H-benzo[d][1,2,3]triazol-1-yl)methyl)-4-(cyclopropylethynyl)-4-(1,1-difluoroethyl)-6-fluoro-3,4-dihydroquinazolin-2(1H)-one], for which the EC50 turned out to be 10.6 nM.
Then `CC(F)(F)[C@@]1(C#CC2CC2)NC(=O)Nc2cc(Cn3ccc(C#N)n3)c(F)cc21` [Example 17, (S)-1-((4-(cyclopropylethynyl)-4-(1,1-difluoroethyl)-6-fluoro-2-oxo-1,2,3,4-tetrahydroquinazolin-7-yl)methyl)-1H-pyrazole-3-carbonitrile], with 46.3 nM.
The result for `O=C1Nc2cc(Cn3ncc4ccncc43)c(F)cc2[C@@](C#CC2CC2)(C(F)(F)F)N1` (single isomer, unassigned) [Example 25] reads 59.9 nM; that for `CC(F)(F)[C@@]1(C#CC2CC2)NC(=O)Nc2cc(Cn3ccc(CCO)n3)c(F)cc21` [Example 47, (S)-4-(cyclopropylethynyl)-4-(1,1-difluoroethyl)-6-fluoro-7-((3-(2-hydroxyethyl)-1H-pyrazol-1-yl)methyl)-3,4-dihydroquinazolin-2(1H)-one], 37.7 nM.
The result for `Nc1ncn(Cc2cc3c(cc2F)[C@@](C#CC2CC2)(C(F)(F)F)NC(=O)N3)n1` (single isomer, unassigned) [Example 107] reads 17.4 nM.
On to `COc1cnn(Cc2cc3c(cc2F)[C@@](C#CC2CC2)(C(C)(F)F)NC(=O)N3)c1` [Example 3, (S)-4-(cyclopropylethynyl)-4-(1,1-difluoroethyl)-6-fluoro-7-((4-methoxy-1H-pyrazol-1-yl)methyl)-3,4-dihydroquinazolin-2(1H)-one], for which the EC50 was 14.4 nM.
Then `CC(F)(F)[C@@]1(C#CC2CC2)NC(=O)Nc2cc(Cn3ccnc3)c(F)cc21` [Example 56, (S)-7-((1H-imidazol-1-yl)methyl)-4-(cyclopropylethynyl)-4-(1,1-difluoroethyl)-6-fluoro-3,4-dihydroquinazolin-2(1H)-one], with 28 nM; and `CC(F)(F)[C@@]1(C#CC2CC2)NC(=O)Nc2cc(Cn3cc(CCO)cn3)c(F)cc21` [Example 70, (S)-4-(cyclopropylethynyl)-4-(1,1-difluoroethyl)-6-fluoro-7-((4-(2-hydroxyethyl)-1H-pyrazol-1-yl)methyl)-3,4-dihydroquinazolin-2(1H)-one], with 50.7 nM.
